{"source": "patent US10219516B2", "about": "“Molecules having pesticidal utility, and intermediates, compositions, and processes, related thereto” (priority 2015, dated 2019)", "key": {"[1]": {"tested_on": "Beet Armyworm (Spodoptera exigua, LAPHEG)", "test": "Bioassay on Beet Armyworm (BAW), 128-well diet tray assay", "format": "in vivo", "conditions": "Species BAW (Beet Armyworm), read-out: BAW (Biological Results, rating)", "experimental": "(§1) Certain molecules disclosed in this document were tested against BAW and CL using procedures described in the following examples. In the reporting of the results, the “BAW & CL Rating Table” was used (See Table Section).\nBioassays on BAW were conducted using a 128-well diet tray assay. One to five second instar BAW larvae were placed in each well (3 mL) of the diet tray that had been previously filled with approximately 1.5 mL of artificial diet to which 50 μg/cm^2 of the test molecule (dissolved in 50 μL of 90:10 acetone-water mixture) had been applied (to each of eight wells) and then allowed to dry. Trays were covered with a clear self-adhesive cover, vented to allow gas exchange, and held at 25° C., 14:10 light-dark for five to seven days. Percent mortality was recorded for the larvae in each well; activity in the eight wells was then averaged. The results are indicated in the table entitled “Table ABC: Biological Results” (See Table Section)."}, "[2]": {"tested_on": "Cabbage Looper (Trichoplusia ni, TRIPNI)", "test": "Bioassay on Cabbage Looper (CL), 128-well diet tray assay", "format": "in vivo", "conditions": "Trichoplusia ni; Species CL (Cabbage Looper); read-out: CL (Biological Results, rating)", "experimental": "as §1\nBioassays on CL were conducted using a 128-well diet tray assay. one to five second instar CL larvae were placed in each well (3 mL) of the diet tray that had been previously filled with 1 mL of artificial diet to which 50 μg/cm^2 of the test molecule (dissolved in 50 μL of 90:10 acetone-water mixture) had been applied (to each of eight wells) and then allowed to dry. Trays were covered with a clear self-adhesive cover, vented to allow gas exchange, and held at 25° C., 14:10 light-dark for five to seven days. Percent mortality was recorded for the larvae in each well; activity in the eight wells was then averaged. The results are indicated in the table entitled “Table ABC: Biological Results” (See Table Section)."}}, "data": [{"compound": "O=C(Nc1ccc(C(F)(F)F)cc1)c1cc(NC(=O)[C@H]2[C@H](c3cc(Cl)cc(Cl)c3)C2(Cl)Cl)ccc1Cl", "note": "(relative stereo) [F6, trans-2-Chloro-5-(2,2-dichloro-3-(3,5-dichlorophenyl)cyclopropane-1-carboxamido)-N-(4-(trifluoromethyl)phenyl)benzamide]", "values": [{"measurement": "pest or weed control at 50 µg/cm2", "setting": "[1]", "result": "50 to 100", "unit": "%"}, {"measurement": "pest or weed control at 50 µg/cm2", "setting": "[2]", "result": "50 to 100", "unit": "%"}]}, {"compound": "O=C(Nc1ccccc1F)c1cc(NC(=O)[C@H]2[C@H](c3cc(Cl)cc(Cl)c3)C2(Cl)Cl)ccc1Cl", "note": "(relative stereo) [F17, trans-2-Chloro-5-(2,2-dichloro-3-(3,5-dichlorophenyl)cyclopropane-1-carboxamido)-N-(2-fluorophenyl)benzamide]", "values": [{"measurement": "pest or weed control at 50 µg/cm2", "setting": "[1]", "result": "50 to 100", "unit": "%"}, {"measurement": "pest or weed control at 50 µg/cm2", "setting": "[2]", "result": "50 to 100", "unit": "%"}]}, {"compound": "O=C(Nc1cccc(Cl)c1)c1cc(NC(=O)[C@H]2[C@H](c3cc(Cl)cc(Cl)c3)C2(Cl)Cl)ccc1Cl", "note": "(relative stereo) [F43, trans-2-Chloro-N-(3-chlorophenyl)-5-(2,2-dichloro-3-(3,5-dichlorophenyl)cyclopropane-1-carboxamido)benzamide]", "values": [{"measurement": "pest or weed control at 50 µg/cm2", "setting": "[1]", "result": "50 to 100", "unit": "%"}, {"measurement": "pest or weed control at 50 µg/cm2", "setting": "[2]", "result": "50 to 100", "unit": "%"}]}, {"compound": "O=C(Nc1ccc(F)cc1)c1cc(NC(=O)[C@H]2[C@H](c3cc(Cl)cc(Cl)c3)C2(Cl)Cl)c(F)cc1Cl", "note": "(relative stereo) [F48, trans-2-Chloro-5-(2,2-dichloro-3-(3,5-dichlorophenyl)cyclopropane-1-carboxamido)-4-fluoro-N-(4-fluorophenyl)benzamide]", "values": [{"measurement": "pest or weed control at 50 µg/cm2", "setting": "[1]", "result": "50 to 100", "unit": "%"}, {"measurement": "pest or weed control at 50 µg/cm2", "setting": "[2]", "result": "50 to 100", "unit": "%"}]}, {"compound": "CN(C(=O)c1cc(NC(=O)[C@H]2[C@H](c3cc(Cl)c(Cl)c(Cl)c3)C2(Cl)Cl)ccc1F)c1ccc(F)cc1", "note": "(relative stereo) [F60, trans-5-(2,2-dichloro-3-(3,4,5-trichlorophenyl)cyclopropane-1-carboxamido)-2-fluoro-N-(4-fluorophenyl)-N-methylbenzamide]", "values": [{"measurement": "pest or weed control at 50 µg/cm2", "setting": "[1]", "result": "50 to 100", "unit": "%"}, {"measurement": "pest or weed control at 50 µg/cm2", "setting": "[2]", "result": "50 to 100", "unit": "%"}]}, {"compound": "O=C(Nc1ccc(F)cc1)c1cc(NC(=O)[C@H]2[C@H](c3cc(Cl)c(Br)c(Cl)c3)C2(Cl)Cl)ccc1Cl", "note": "(relative stereo) [F72, trans-5-(3-(4-Bromo-3,5-dichlorophenyl)-2,2-dichlorocyclopropane-1-carboxamido)-2-chloro-N-(4-fluorophenyl)benzamide]", "values": [{"measurement": "pest or weed control at 50 µg/cm2", "setting": "[1]", "result": "50 to 100", "unit": "%"}, {"measurement": "pest or weed control at 50 µg/cm2", "setting": "[2]", "result": "50 to 100", "unit": "%"}]}, {"compound": "O=C(Nc1ccc(F)cc1)c1cc(NC(=O)[C@H]2[C@H](c3cc(Cl)c(Cl)cc3Cl)C2(Cl)Cl)ccc1Cl", "note": "(relative stereo) [F73, trans-2-Chloro-5-(2,2-dichloro-3-(2,4,5-trichlorophenyl)cyclopropane-1-carboxamido)-N-(4-fluorophenyl)benzamide]", "values": [{"measurement": "pest or weed control at 50 µg/cm2", "setting": "[1]", "result": "50 to 100", "unit": "%"}, {"measurement": "pest or weed control at 50 µg/cm2", "setting": "[2]", "result": "50 to 100", "unit": "%"}]}, {"compound": "O=C(Nc1ccccn1)c1cc(NC(=O)[C@H]2[C@H](c3cc(Cl)cc(Cl)c3)C2(Cl)Cl)ccc1Cl", "note": "(relative stereo) [F78, trans-2-Chloro-5-(2,2-dichloro-3-(3,5-dichlorophenyl)cyclopropane-1-carboxamido)-N-(pyridin-2-yl)benzamide]", "values": [{"measurement": "pest or weed control at 50 µg/cm2", "setting": "[1]", "result": "50 to 100", "unit": "%"}, {"measurement": "pest or weed control at 50 µg/cm2", "setting": "[2]", "result": "50 to 100", "unit": "%"}]}, {"compound": "O=C(Nc1ccc(F)cc1)c1cc(NC(=O)[C@H]2[C@H](c3cc(C(F)(F)F)cc(C(F)(F)F)c3)C2(Cl)Cl)ccc1Cl", "note": "(relative stereo) [F84, trans-5-(3-(3,5-Bis(trifluoromethyl)phenyl)-2,2-dichlorocyclopropane-1-carboxamido)-2-chloro-N-(4-fluorophenyl)benzamide]", "values": [{"measurement": "pest or weed control at 50 µg/cm2", "setting": "[1]", "result": "50 to 100", "unit": "%"}, {"measurement": "pest or weed control at 50 µg/cm2", "setting": "[2]", "result": "50 to 100", "unit": "%"}]}, {"compound": "O=C(Nc1c(F)cccc1F)c1cc(NC(=O)[C@H]2[C@H](c3cc(C(F)(F)F)cc(C(F)(F)F)c3)C2(Cl)Cl)ccc1Cl", "note": "(relative stereo) [F86, trans-5-(3-(3,5-Bis(trifluoromethyl)phenyl)-2,2-dichlorocyclopropane-1-carboxamido)-2-chloro-N-(2,6-difluorophenyl)benzamide]", "values": [{"measurement": "pest or weed control at 50 µg/cm2", "setting": "[1]", "result": "50 to 100", "unit": "%"}, {"measurement": "pest or weed control at 50 µg/cm2", "setting": "[2]", "result": "50 to 100", "unit": "%"}]}, {"compound": "O=C(Nc1c(F)cccc1F)c1cc(NC(=O)[C@H]2[C@H](c3cc(Cl)cc(C(F)(F)F)c3)C2(Cl)Cl)ccc1Cl", "note": "(relative stereo) [F89, trans-2-Chloro-5-(2,2-dichloro-3-(3-chloro-5-(trifluoromethyl)phenyl)cyclopropane-1-carboxamido)-N-(2,6-difluorophenyl)benzamide]", "values": [{"measurement": "pest or weed control at 50 µg/cm2", "setting": "[1]", "result": "50 to 100", "unit": "%"}, {"measurement": "pest or weed control at 50 µg/cm2", "setting": "[2]", "result": "50 to 100", "unit": "%"}]}, {"compound": "O=C(Nc1ccc(F)cc1)c1cc(NC(=O)[C@H]2[C@H](c3cc(Br)cc(Br)c3)C2(Cl)Cl)ccc1Cl", "note": "(relative stereo) [F90, trans-2-Chloro-5-(2,2-dichloro-3-(3,5-dibromophenyl)cyclopropane-1-carboxamido)-N-(4-fluorophenyl)benzamide]", "values": [{"measurement": "pest or weed control at 50 µg/cm2", "setting": "[1]", "result": "50 to 100", "unit": "%"}, {"measurement": "pest or weed control at 50 µg/cm2", "setting": "[2]", "result": "50 to 100", "unit": "%"}]}, {"compound": "O=C(Nc1c(F)cccc1F)c1cc(NC(=O)[C@H]2[C@H](c3cc(Br)cc(Br)c3)C2(Cl)Cl)ccc1Cl", "note": "(relative stereo) [F92, trans-2-Chloro-5-(2,2-dichloro-3-(3,5-dibromophenyl)cyclopropane-1-carboxamido)-N-(2,6-difluorophenyl)benzamide]", "values": [{"measurement": "pest or weed control at 50 µg/cm2", "setting": "[1]", "result": "50 to 100", "unit": "%"}, {"measurement": "pest or weed control at 50 µg/cm2", "setting": "[2]", "result": "50 to 100", "unit": "%"}]}, {"compound": "N#Cc1ccc(NC(=O)c2cc(NC(=O)[C@H]3[C@H](c4cc(Cl)cc(Cl)c4)C3(Cl)Cl)ccc2F)c(F)c1", "note": "(relative stereo) [F93, trans-N-(4-Cyano-2-fluorophenyl)-5-(2,2-dichloro-3-(3,5-dichlorophenyl)cyclopropane-1-carboxamido)-2-fluorobenzamide]", "values": [{"measurement": "pest or weed control at 50 µg/cm2", "setting": "[1]", "result": "50 to 100", "unit": "%"}, {"measurement": "pest or weed control at 50 µg/cm2", "setting": "[2]", "result": "50 to 100", "unit": "%"}]}, {"compound": "N#Cc1ccc(NC(=O)c2cc(NC(=O)[C@H]3[C@H](c4ccc(Cl)c(Cl)c4)C3(Cl)Cl)ccc2F)c(F)c1", "note": "(relative stereo) [F94, trans-N-(4-Cyano-2-fluorophenyl)-5-(2,2-dichloro-3-(3,4-dichlorophenyl)cyclopropane-1-carboxamido)-2-fluorobenzamide]", "values": [{"measurement": "pest or weed control at 50 µg/cm2", "setting": "[1]", "result": "50 to 100", "unit": "%"}, {"measurement": "pest or weed control at 50 µg/cm2", "setting": "[2]", "result": "50 to 100", "unit": "%"}]}, {"compound": "N#Cc1ccc(NC(=O)c2cc(NC(=O)[C@H]3[C@H](c4cc(Cl)c(Cl)c(Cl)c4)C3(Cl)Cl)ccc2F)c(F)c1", "note": "(relative stereo) [F95, trans-N-(4-Cyano-2-fluorophenyl)-5-(2,2-dichloro-3-(3,4,5-trichlorophenyl)cyclopropane-1-carboxamido)-2-fluorobenzamide]", "values": [{"measurement": "pest or weed control at 50 µg/cm2", "setting": "[1]", "result": "50 to 100", "unit": "%"}, {"measurement": "pest or weed control at 50 µg/cm2", "setting": "[2]", "result": "50 to 100", "unit": "%"}]}, {"compound": "CN(C(=O)c1cc(NC(=O)[C@H]2[C@H](c3cc(Cl)c(F)c(Cl)c3)C2(Cl)Cl)ccc1Cl)c1ccc(F)cc1", "note": "(relative stereo) [F97, trans-2-Chloro-5-(2,2-dichloro-3-(3,5-dichloro-4-fluorophenyl)cyclopropane-1-carboxamido)-N-(4-fluorophenyl)-N-methylbenzamide]", "values": [{"measurement": "pest or weed control at 50 µg/cm2", "setting": "[1]", "result": "50 to 100", "unit": "%"}, {"measurement": "pest or weed control at 50 µg/cm2", "setting": "[2]", "result": "50 to 100", "unit": "%"}]}, {"compound": "O=C(Nc1c(F)cccc1F)c1cc(NC(=O)[C@H]2[C@H](c3cc(Cl)c(F)c(Cl)c3)C2(Cl)Cl)ccc1Cl", "note": "(relative stereo) [F98, trans-2-Chloro-5-(2,2-dichloro-3-(3,5-dichloro-4-fluorophenyl)cyclopropane-1-carboxamido)-N-(2,6-difluorophenyl)benzamide]", "values": [{"measurement": "pest or weed control at 50 µg/cm2", "setting": "[1]", "result": "50 to 100", "unit": "%"}, {"measurement": "pest or weed control at 50 µg/cm2", "setting": "[2]", "result": "50 to 100", "unit": "%"}]}]}
